In patent publication US20260248833A1, “PYRIMIDINE NUCLEOSIDE TREATMENTS” (The Children`s Medical Center Corporation, priority 2022, published 2026):
Entries after “also recorded” stand apart in the source; their conditions may differ.

Legend:
[1] = system: iPSCs derived from TBD patients; assay: TRF Southern blot telomere length, TBD patient-derived iPSCs; assay type: cell-based, human; settings: for telomere length increase / telomere elongation: 50 μM dT for three weeks; for telomere elongation: panel of TBD patient iPSCs (TERC, DKC1, PARN)
Experimental: (§1) Cell culture: K562 cells (ATCC) were grown in RPMI1 1640 (Gibco) media supplemented with 10% fetal bovine serum. 293T cells (ATCC) were grown in DMEM (Gibco) supplemented with 10% fetal bovine serum, and were subcultured using 0.05% trypsin (Gibco). iPSCs were derived, characterized and cultured as previously described. iPSCs were grown in Essential 8 Media (Life Technologies) supplemented with the ROCK inhibitor Y271632 (Stem Cell Technologies) at 10 μM on plates coated with hES qualitied Matrigel matrix (Corning) and were subcultured using Accutase (Stem Cell Technologies).
(§2) Terminal Restriction Fragment Length Analysis: genomic DNA was isolated from cells using the Invitrogen Purelink Genomic DNA mini kit (Invitrogen). 1-3 μg of gDNA was digested with RsaI and HinfI for 2-3 hrs at 37° C. and loaded onto a 0.6% agarose gel followed by Southern blotting using the Telotaggg Telomere Length Assay Kit (Roche). Quantification was performed using the WALTER webtool.

[2] = system: pCHK1-S345 and pRPA32-S33; assay: Immunoblot of replication stress signaling in super-telomerase cells; assay type: cell-based, human
[3] = system: cell cycle progression; settings: cited from earlier work
[4] = system: super-telomerase cells (TERC-null 293T cells transfected with TERT and TERC); assay: TRF Southern blot telomere synthesis in super-telomerase cells; assay type: cell-based, human
Experimental: as §2
dT supplementation increases levels of dTTP and can reduce dCTP levels, leading to replication stress at high doses. Because replication stress signaling has been implicated in telomerase biology we asked whether replication stress induction explained the telomere length increases seen with dT treatment. We first tested whether telomere elongation is a universal response to replication stress-inducing compounds. […] However, cytotoxicity limited our ability to apply higher doses of replication stress-inducing compounds for time periods long enough to study telomere length changes. […] Using this system, we next asked how high-dose treatment with replication stress-inducing agents such as aphidicolin, hydroxyurea, and the TYMS inhibitor 5FU influence telomere synthesis compared to dT.

[5] = system: 293T cells; assay: Cell growth curves by hemocytometry, 293T cells; assay type: cell-based
Experimental: Quantification of cell growth was performed using hemocytometry with trypan blue staining to identify dead cells. For growth curves, 50k cells were plated per 12 well or 100k cells were plated per 6 well and cells were passaged when confluent, counted using a hemocytometer, and replated at equal numbers in fresh media.

[6] = cited from earlier work
[7] = system: human HSPCs; assay: TRF telomere length of HSPCs; assay type: cell-based; settings: HSPCs treated with dT for 7 days (FIG. 19)
Experimental: as §2

[8] = system: primary fibroblasts; assay: Telomere lengthening from dT with TERT expression in primary fibroblasts; assay type: cell-based; settings: primary fibroblasts (FIG. 30A)
[9] = system: T-free super-telomerase expressing cells (293T TERC-null); assay: Slot blot of GGAAAG repeat content in cellular DNA; assay type: cell-based, human
Experimental: Slot blotting: slot blotting was performed as described with minor modifications. Briefly, DNA concentration was normalized to 20 ng/μl using a nanodrop spectrophotometer. 3.3 μl of DNA was added to 16.5 μl of denaturation solution (0.5 M NaOH, 1.5 M NaCl) and heated to 55° C. for 30 minutes. 495 μl of neutralization solution (0.5 M Tris-HCl, 1.5 M NaCl) was added to denatured DNA and 156 μl of this solution was added in triplicate to different slots on a Bio-Dot SF Apparatus (Bio-Rad) and blotted onto Hybond N+ Membrane (Cytivia). Membrane preparation and washing was performed as described. For samples with paired GGTTAG and GGAAAG slot blots, the above recipe was doubled, and 156 μl was loaded onto parallel membranes in triplicate on each membrane. After blotting, membranes were hybridized and detected as described above for TRF Southern blots using the probe indicated in the figure. Blots were analyzed using ImageJ. Statistical analysis was performed using Graphpad prism V9.1.0.

[10] = system: 293T cells; assay: Terminal restriction fragment (TRF) Southern blot telomere length, 293T cells; assay type: cell-based, human
Experimental: as §1, §2

[11] = increasing doses of dT (FIG. 8a)

In the case of `Cc1cn([C@H]2C[C@H](O)[C@@H](CO)O2)c(=O)[nH]c1=O` [dT, 1-[(2R,4S,5R)-4-Hydroxy-5-(hydroxymethyl)oxolan-2-yl]-5-methylpyrimidine-2,4 (1H,3H)-dione], the telomere length increase ([1]; PARN deficient iPSCs) is reported as 570 bp, the telomere length ([1]; TBD patient-derived iPSCs with two different mutations, 100 μM dT for 22 days (FIG. 13A)) is reported as “increased telomere length” and the telomere length increase ([1]; TERC deficient iPSCs) is reported as 640 bp. The telomere elongation [1] was “produced telomere elongation in all cases”, the telomere elongation ([1]; listed as thymidine) was “hundreds of basepairs” and the “replication stress signaling at the telomere-active dose” value ([2]; 40 μM dT) was “far below doses that induce replication stress signaling”. For the same compound, the replication stress signaling ([2]; highest doses, 30 hours) was “induced similar levels of replication stress signaling”, the “doses typically used to synchronize cells in S phase” value [3] was 1 to 2 mM and the “dose at which increased telomere repeat synthesis could be observed” value ([4]; 30 hours) was 40 µM. The “rescue of telomere synthesis following 5FU treatment” value ([4]; dT supplementation with maximal doses of 5FU) was “restored telomere elongation despite maximal doses of 5FU; also recorded: fully rescued telomere synthesis”, the “maximal rate of telomere elongation” value ([4]; high-dose dT treatment, 30 hours, baseline 103 bp/hour) was 625 bp/hour and the “telomere repeat synthesis / telomere elongation by telomerase” value ([4]; treatment for 30 hours) was “robustly increased telomere repeat synthesis in a dose-responsive and telomerase-dependent manner”. The cellular growth ([5]; 20 or 40 μM dT, 34 days) was “undetectable changes in cellular growth curves; also recorded: undetectable impact on cellular growth”, the “dose at which inhibition of growth was detected” value [5, 11] was at least 50 µM and the “doses at which growth was minimally impacted” value [5, 11] was “below 100 μM”. For the same compound, the aqueous solubility [6] was “about 50 mg/ml”, the telomere length [7] was “lengthens telomeres in human HSPCs after just 7 days” and the “telomere lengthening from dT with expression of TERT” value [8] was “expression of TERT can increase telomere lengthening from dT”. For the same compound, the GGAAAG repeat content ([9]; 100 μM dT, 30 hours, wild-type versus T-free super-telomerase) was “an increase in GGAAAG repeat content exclusively in cells expressing T-free telomerase; also recorded: enhanced repeat synthesis by telomerase”, the “rescue of GGAAAG repeat synthesis following 5FU treatment” value ([9]; dT with 5FU) was “could rescue the inhibition of GGAAAG repeat synthesis following 5FU treatment; also recorded: rescued by dT supplementation” and the “doses leading to robust telomere elongation in less than 10 days” value [10] was at least 50 µM. For the same compound, the “telomere lengthening from dT treatment” value ([10]; 50 μM dT for eight days, without SAMHD1 knockdown) was ~ 470 bp, the “telomere elongation after withdrawal of dT” value ([10]; 100 μM dT withdrawn after 15 days) was “aborted telomere elongation” and the “telomere length, time-course of dT treatment” value ([10]; 100 μM dT, over 33 days) was “gradually and continually increased telomere length”. For the same compound, the telomere length ([10]; 100 μM of the indicated deoxynucleoside(s) for 9 days) was “rapidly and robustly increases telomere length; also recorded: promoted telomere lengthening, as did dT alone; also recorded: necessary and sufficient for telomere lengthening”, the telomere length ([10]; 20 or 40 μM dT, 10 days) was “minimal telomere length changes” and the telomere length ([10]; 20 or 40 μM dT, 34 days) was “robust telomere lengthening”. For the same compound, the “persistence of long telomere length after dT withdrawal” value ([10]; 100 micromolar thymidine for 15 days then removed) was “more than two weeks”, the “telomere lengthening following dT with dNTPase-deficient SAMHD1 H215A or K312A variants” value ([10]; 10 days) was “could not restrict telomere lengthening following dT supplementation” and the “telomere lengthening following dT treatment with overexpression of wild-type SAMHD1” value ([10]; 10 days, compared to EGFP control) was “reduced telomere lengthening following dT treatment”. The “telomere elongation with dT from different manufacturers” value ([10]; 10 days, three manufacturers, each of >98% purity) was “resulted in telomere elongation similarly”, the “telomere lengthening upon dT treatment in TK1-edited cells” value ([10]; CRISPR/Cas9 TK1 edited) was “complete abrogation of the telomere lengthening; also recorded: prevented telomere lengthening following dT treatment” and the “telomere lengthening upon dT treatment in TK2-edited cells” value ([10]; CRISPR/Cas9 TK2 edited) was “no difference in telomere length increases compared to control AAVS1-targeted cells; also recorded: TK2 knockout did not”. The “telomere lengthening, combined SAMHD1 knockdown and dT treatment” value ([10]; SAMHD1 targeting shRNA, 50 μM dT for eight days) was ~ 800 bp, the “telomere elongation, increase of base pairs (bp) per day” value ([10]; at 100 μM dT) was 96 bp per day and the “telomere elongation, increase of base pairs (bp) per day” value ([10]; at […] dT) was 60 bp per day. The “telomere lengthening in TYMS-knockout cells” value ([10]; baseline 16 μM dT, plus 100 μM additional dT or 1 mM dU, 10 days) was “responsive to dT to promote telomere lengthening”.
